Reference: US20230277503A1, “COMPOSITIONS AND METHODS TO REDUCE PATHOGENESIS” (priority 2017, published 2023)
“Also recorded” adds a separate entry of the source. Like-named read-outs stand apart in the source and are kept apart here. Marks after values point to notes of the source that are not given here.

Key:
[1] = system: HSV-1 RE; test: Murine model of HSV-1 (RE) chronic herpetic keratitis; type: in vivo, BALB/c mice; conditions: for signs of disease, including stromal opacity and corneal neovascularization: acute herpetic keratitis stage; for weight loss associated with HSV-1 ocular infection: day 5 to 11 post infection; for ocular histology (H&E, central cornea): day 15 post infection; for # Deceased / # Eyes showing signs of disease / Clinically clear eyes: day 15 post-infection, topical drops 4x per day for 8 days, (R)-DOI 500 μM; for stromal opacity score: following day 8 post infection; for clinical scores (slit lamp score, corneal opacity, neovascularization): up to 15 DPI, versus control BSS
Description: (§1) 16 BALB/c mice, which can respond with a TH2 biased immune response, were randomly sorted into 3 treatment arms: 1) Ophthalmic Balanced Saline Solution diluted 1:1 in PBS (BSS+PBS) treated (6 mice); 2) DOI treated (XTPFDOI) (5 mice); 3) 1.0% TFT (TFT+PBS) (5 mice). Animals were anesthetized with […]:ketamine and both eyes were scarified in a cross hatch pattern using a curved needle. Immediately following ocular scarification, eyes were inoculated with a 3 microliter drop containing 10,000 plaque forming units (PFU) of Herpes Simplex Virus type 1 (HSV-1) RE strain. The next morning following infection animals were treated with the respective treatment as assigned within their treatment arm. Treatments were applied topically to the eye in a 4 microliter drop. Drops were applied 4× daily from 9 am to 5:30 pm starting immediately following clinical scoring. Treatments were applied for the first 8 days post infection and then stopped on day 8. Clinical scoring was done using a slit lamp biomicroscope magnified at 16× on the days indicated by a single individual masked to the drug treatment parameters. Slit lamp biomicroscopy also included fluorescein exclusion labeling of the corneal surface following scoring of all clinical parameters. Each eye was scored independently. Clinically clear eyes were scored as such if no apparent signs of disease were present in any clinical parameter during the chronic phase.
At day 15 post infection, a stage that will be during chronic immune-associated disease with no virus present, animals were euthanized and the eyes were removed for histology. Random representative eyes were prepared by taking sections through the central cornea and processed by H&E histology for visualization. Sections were examined microscopically and photographed across the central cornea.
BALB/c eyes were scarified and infected with HSV-1 (RE), an HSV-1 strain that causes herpetic keratitis in 100% of ocular infections^31. Starting 24 hours post-infection, topical drops were applied in a masked fashion 4× per day for 8 days. Individual clinical parameters were monitored and scored in a masked fashion for 15 days.
BALB/c eyes were scarified and infected with 10,000 PFU per eye of HSV-1 RE, an HSV-1 strain that causes herpetic keratitis in 100% of ocular infections.
Referring to FIGS. 37-42, for example, individual clinical parameters were monitored and scored in a masked fashion for 15 days post infection. Parameters included weight, death, epiphora, blepharitis, corneal epithelium, corneal neovascularization, stromal opacity, scleral inflammation and fluorescently visualized slitlamp biomicroscopy.
24 hours post infection, topical drops were applied in a masked fashion 4× per day at 4 ul per drop to the surface of the eye. Topical drops consisted of 1% Trifluorthymidine (1% TFT; Viroptic), Ophthalmic Balanced Salt Solution (BSS), or (R)-DOI in Ophthalmic BSS.
as §1, with “preferentially” for “can”, “(BSS)” for “diluted 1:1 in PBS (BSS+PBS)”, “((R)-DOI)” for “(XTPFDOI)”, “TFT” for “TFT (TFT+PBS)”, “Slit lamp biomicroscopy also included fluorescein exclusion labeling of the corneal surface following scoring of all clinical parameters. Each eye was scored independently. Clinically clear eyes were scored as such if no apparent signs of disease were present in any clinical parameter during the chronic phase.” left out

[2] = system: human microvascular endothelial cells (HMEC); test: HMEC spheroid vascular-like tubule outgrowth; type: cell-based; conditions: matrigel with VEGF; serotonin 50 nM, R-DOI 100 nM, TCB2 500 nM
Experimental: HMEC cells were cultured in specially coated U-shaped bottom 96 well plates in order to form tissue-like 3 dimension spheroids. Spheroids were subsequently implanted into wells that contained matrigel basement membranes supplemented with vascular endothelial growth factor (VEGF) or starved (Starvation control-no VEGF). Culture media was treated with either serotonin (50 nM), (R-DOI (100 nM) or TCB2 (500 nM) outgrowth from the spheroids of vascular-like structures was monitored microscopically.

[3] = system: VEGF-mediated neovascularization from aortic rings; test: Aortic ring neovascularization assay; type: cell-based, mice; conditions: for blood vessel sprouting, branching and formation from aortic rings: VEGF-containing endothelial growth medium, matrigel
Experimental: Referring to FIG. 34 for example, the aortas from sacrificed mice are removed, cleaned, and dissected into 1 mm tubule sections. These aortic rings are implanted into matrigel basement membrane and incubated in endothelial cell growth medium containing vascular endothelial growth factor. Aortic rings are continuously incubated in the presence of 5HT2A receptor agonists and antagonists at the indicated concentrations and examined by microscopy daily. Extensive sprouting, branching and networking of new blood vessels can be observed in control aortic rings, where multiple images needed to be stitched together in order to capture the extensive blood vessel network formed.

[4] = system: human microvascular endothelial cells; test: Endothelial tubule formation assay; type: cell-based; conditions: geltrex basement membrane
Experimental: Referring to FIG. 35 for example, to assess the ability of 5-HT2A agonists and antagonists to inhibit capillary-like endothelial tube formation, human microvascular endothelial cells were seeded into geltrex basement membrane and overlaid with endothelial growth medium containing vascular endothelial growth factor (VEGF) and the indicated drugs. Both 5HT2A agonists and antagonists disrupted formation of endothelial tube networks, the formation of branching, complex capillary structures, and interconnectivity of capillary tubes.

[5] = system: HSV-1; type: cell-based, mice; conditions: 500 nM; for HSV-1 reactivation and amount of infectious virus shed from latent neurons (PFU/ml/TG): relative to mock/buffer control, 10 days
[6] = system: TNFα-induced inflammatory gene and protein expression; conditions: intraperitoneal, doses up to 30-fold below the CNS behaviorally-active threshold dose; aorta and intestine; cited from earlier work
[7] = system: asthma in a rat model; test: Rat model of asthma (OVA); type: in vivo; conditions: OVA (ovalbumin) allergen
Description: OVA is ovalbumin, a frequently used allergen that induces robust, allergic pulmonary inflammation in laboratory rodents.

Compound | signs of disease, including stromal opacity and corneal neovascularization [1] | weight loss associated with HSV-1 ocular infection [1] | # Deceased [1] | # Eyes showing signs of disease [1] | Clinically clear eyes [1] | stromal opacity score [1] | clinical scores (slit lamp score, corneal opacity, neovascularization) [1] | vascular-like tubular growth from HMEC spheroids [2] | blood vessel sprouting, branching and formation from aortic rings [3] | VEGF-mediated human vascular endothelium tubule formation [4] | further results
O=c1[nH]c(=O)n([C@H]2C[C@H](O)[C@@H](CO)O2)cc1C(F)(F)F [1% TFT, trifluorothymidine, reference compound] | reduced signs of disease | experienced weight loss associated with HSV-1 ocular infections | 0/5 | 7/10 | 0/10 | markedly increased opacity score | initially controlled ocular disease development relative to control BSS treated eyes |  |  |  | ocular histology (H&E, central cornea) ([1]; listed as TFT): immune cell infiltration, thickening of the stroma, neovascularization, and disruption of the corneal epithelial layers
COc1cc(CCN)c(OC)cc1I [2CI, 2-(4-Iodo-2,5-dimethoxyphenyl)ethan-1-amine] |  |  |  |  |  |  |  | abrogated formation of vascular-like tubular growth |  |  | 
O=C(c1ccc(F)cc1)C1CCN(CCCCc2ccccc2)CC1 [4F4PP, reference compound] |  |  |  |  |  |  |  |  | inhibit VEGF-mediated neovascularization from aortic rings | inhibit VEGF-mediated human vascular endothelium tubule formation | 
COc1cc(C[C@@H](C)N)c(OC)cc1I [(R)-DOI, (R)-1-(2,5-dimethoxy-4-iodophenyl)-2-aminopropane] | reduced signs of disease | do not experience significant weight loss | 0/5 | 3/10* | 6/10 | increase in stromal opacity was muted | reduced slit lamp scores, corneal opacity and neovascularization | abrogated formation of vascular-like tubular growth | inhibit VEGF-mediated neovascularization from aortic rings; also recorded: inhibited blood vessel sprouting, branching and formation | inhibit VEGF-mediated human vascular endothelium tubule formation | delay in reactivation of HSV-1 from TGs ([5]; relative to mock): 2 fold; HSV-1 reactivation and amount of infectious virus shed from latent neurons (PFU/ml/TG) [5]: inhibits HSV-1 reactivation from latent neurons; also recorded: significantly inhibited the number of reactivating TGs and the amount of infectious virus shed from neurons; HSV-1 reactivation and amount of infectious virus shed from latent neurons (PFU/ml/TG) ([5]; listed as DOI): significantly inhibited the degree of reactivation and amount of infectious virus shed from latent neurons; disease relative to control BSS treatment ([1]; after day 8, chronic immuno-pathology): significantly reduced disease relative to control BSS treatment; eyes exhibiting complete clinical resolution ([1]; by day 15, drops topically applied for 7 days post infection): 60%; corneal neovascularization ([1]; compared to control BSS or TFT treated eyes): decreased development of corneal neovascularization; ocular histology (H&E, central cornea) [1]: markedly less disease presentation in all eyes examined; also recorded: most similar to uninfected eyes; ocular histology (H&E, central cornea) ([1]; listed as DOI): normal ocular morphology with an absence of clinical signs of ocular disease; clinical scores (slit lamp score, corneal opacity, neovascularization) ([1]; listed as DOI): suppressed development of all clinically scored parameters; concentration at which the inhibitory effects began to no longer be as effective ([3]; neovascularization, sprouting, branching, networking): 10 nM; TNFα-induced inflammatory gene and protein expression [6]: potently inhibits TNFα-induced inflammatory gene and protein expression
CCN(CC)C(=O)[C@@H]1C=C2c3cccc4[nH]cc(c34)C[C@H]2N(C)C1 [LSD] |  |  |  |  |  |  |  |  |  |  | symptoms of asthma [7]: can prevent symptoms of asthma
NCCc1c[nH]c2ccc(O)cc12 [serotonin, 5-hydroxytryptamine] |  |  |  |  |  |  |  | induces vascularization-like replication and tubule growth |  |  | 
